The numbers were not newly measured in paper PMC4360375 (Journal of Medicinal Chemistry, 2015), which cites them from elsewhere.

SMILES strings stand for the structures. Read-outs that look alike come from different tables or passages of the source.

In the data set the test system is GABA uptake, rat synaptosome. The conditions noted are these: literature data set, cited from earlier work.

With `O=C(O)[C@@H]1CCCN(CCC=C(c2ccccc2)c2ccccc2)C1` [(R)-SK&F-89976-A, OC(=O)[C@@H]1CCCN(C1)CC\C=C(\c1ccccc1)/c1ccccc1], the pIC50 (ref 10.1021/jm00064a005) is 6.959. Regarding `Cc1ccsc1C(=CCCN1CCC[C@H](C(=O)O)C1)c1sccc1C` [(S)-Tiagabine, s1ccc(C)c1\C(=C\CCN1C[C@H](CCC1)C(O)=O)\c1sccc1C], the pIC50 (ref 10.1021/jm00064a005) was 6.658. In the case of `Cc1ccsc1C(=CCCN1CCC=C(C(=O)O)C1)c1sccc1C` [An_1993_30, s1ccc(C)c1\C(=C\CCN1CC(=CCC1)C(O)=O)\c1sccc1C], for the setting “ref 10.1021/jm00064a005”, the pIC50 is given as 6.854.

Turning to `Cc1ccccc1/C(=C\CCN1CCC[C@@H](C(=O)O)C1)c1sccc1C` [An_1993_31, s1ccc(C)c1/C(=C/CCN1C[C@@H](CCC1)C(O)=O)/c1ccccc1C], under “ref 10.1021/jm00064a005”, the negative-log IC50 (pIC50) is 7.097.

Consider `Cc1ccccc1/C(=C\CCN1CCC[C@H](C(=O)O)C1)c1sccc1C` [An_1993_32, s1ccc(C)c1/C(=C/CCN1C[C@H](CCC1)C(O)=O)/c1ccccc1C], for which the pIC50 (ref 10.1021/jm00064a005) is 6.42. `Cc1ccccc1/C(=C\CCN1CCC=C(C(=O)O)C1)c1sccc1C` [An_1993_33, s1ccc(C)c1/C(=C/CCN1CC(=CCC1)C(O)=O)/c1ccccc1C]: the pIC50 (ref 10.1021/jm00064a005) is 6.886. As to `Cc1ccccc1C(=CCCN1CCC[C@@H](C(=O)O)C1)c1ccccc1C` [An_1993_34, OC(=O)[C@@H]1CCCN(C1)CC\C=C(\c1ccccc1C)/c1ccccc1C], the pIC50 (ref 10.1021/jm00064a005) was 7.097. Consider `O=C(O)C1=CCCN(CC/C=C(\c2ccccc2)c2cccs2)C1` [An_1993_36, s1cccc1/C(=C/CCN1CC(=CCC1)C(O)=O)/c1ccccc1], for which the pIC50 (ref 10.1021/jm00064a005) is on record as 6.577. Regarding `Cc1ccsc1/C(=C/CCN1CCC=C(C(=O)O)C1)c1ccc(Cl)cc1Cl` [An_1993_37, Clc1cc(Cl)ccc1\C(=C/CCN1CC(=CCC1)C(O)=O)\c1sccc1C], the pIC50 (ref 10.1021/jm00064a005) is on record as 6.495. Turning to `Cc1ccsc1/C(=C/CCN1CCC=C(C(=O)O)C1)c1cc(Cl)cc(Cl)c1` [An_1993_38, Clc1cc(cc(Cl)c1)/C(=C\CCN1CC(=CCC1)C(O)=O)/c1sccc1C], where the note is “ref 10.1021/jm00064a005”, the pIC50 is on record as 5.73. Regarding `Cc1ccsc1/C(=C/CCN1CCC[C@@H](C(=O)O)C1)c1cccs1` [An_1993_40, s1ccc(C)c1\C(=C\CCN1C[C@@H](CCC1)C(O)=O)\c1sccc1], the pIC50 (ref 10.1021/jm00064a005) is listed as 7.222. Turning to `Cc1ccsc1/C(=C/CCN1CCC[C@H](C(=O)O)C1)c1cccs1` [An_1993_41, s1ccc(C)c1\C(=C\CCN1C[C@H](CCC1)C(O)=O)\c1sccc1], for the setting “ref 10.1021/jm00064a005”, the pIC50 was 6.161.

Consider `Cc1ccsc1/C(=C/CCN1CCC=C(C(=O)O)C1)c1cccs1` [An_1993_42, s1ccc(C)c1\C(=C\CCN1CC(=CCC1)C(O)=O)\c1sccc1], for which the pIC50 (ref 10.1021/jm00064a005) is 6.959. As for `Cc1cc(Cl)ccc1/C(=C\CCN1CCC[C@@H](C(=O)O)C1)c1sccc1C` [An_1993_44, Clc1cc(C)c(cc1)\C(=C/CCN1C[C@@H](CCC1)C(O)=O)\c1sccc1C], where the note is “ref 10.1021/jm00064a005”, the pIC50 is given as 6.959.

For the compound `Cc1cc(Cl)ccc1/C(=C\CCN1CCC=C(C(=O)O)C1)c1sccc1C` [An_1993_45, Clc1cc(C)c(cc1)\C(=C/CCN1CC(=CCC1)C(O)=O)\c1sccc1C], the pIC50 (ref 10.1021/jm00064a005) is 6.523.

For `Cc1ccsc1/C(=C/CCN1CCC[C@@H](C(=O)O)C1)c1c(C)cccc1C` [An_1993_46, s1ccc(C)c1/C(=C/CCN1C[C@@H](CCC1)C(O)=O)/c1c(cccc1C)C], the pIC50 (ref 10.1021/jm00064a005) is listed as 6.602.

For `Cc1ccc(/C(=C\CCN2CCC[C@@H](C(=O)O)C2)c2sccc2C)c(C)c1` [An_1993_47, s1ccc(C)c1/C(=C/CCN1C[C@@H](CCC1)C(O)=O)/c1ccc(cc1C)C], the pIC50 (ref 10.1021/jm00064a005) was 6.585.

As for `Cc1ccsc1/C(=C/CCN1CCC=C(C(=O)O)C1)c1ccc(Cl)cc1` [An_1993_48, Clc1ccc(cc1)/C(=C\CCN1CC(=CCC1)C(O)=O)/c1sccc1C], where the note is “ref 10.1021/jm00064a005”, the pIC50 is recorded as 6.071.

As for `Cn1cccc1/C(=C/CCN1CCC=C(C(=O)O)C1)c1ccccc1` [An_1993_49, OC(=O)C=1CN(CCC=1)CC\C=C(/c1ccccc1)\c1n(ccc1)C], where the note is “ref 10.1021/jm00064a005”, the pIC50 is 6.886.

For `Cc1ccsc1C(=NOCCN1CCC[C@@H](C(=O)O)C1)c1sccc1C` [An_1999/3_12, s1ccc(C)c1\C(=N\OCCN1C[C@@H](CCC1)C(O)=O)\c1sccc1C], the pIC50 (ref 10.1021/jm981027k) is recorded as 7.398.

Take `Cc1csc(/C(=N/OCCN2CCC[C@@H](C(=O)O)C2)c2ccccc2C)c1` [An_1999/3_20, s1cc(cc1/C(=N/OCCN1C[C@@H](CCC1)C(O)=O)/c1ccccc1C)C]: the pIC50 (ref 10.1021/jm981027k) is given as 6.108. With `Cc1csc(/C(=N/OCCN2CCC[C@H](C(=O)O)C2)c2ccccc2C)c1` [An_1999/3_21, s1cc(cc1/C(=N/OCCN1C[C@H](CCC1)C(O)=O)/c1ccccc1C)C], under “ref 10.1021/jm981027k”, the pIC50 is 5.062. Take `Cc1csc(/C(=N\OCCN2CCC[C@@H](C(=O)O)C2)c2ccccc2C)c1` [An_1999/3_22, s1cc(cc1/C(=N\OCCN1C[C@@H](CCC1)C(O)=O)/c1ccccc1C)C]: the pIC50 (ref 10.1021/jm981027k) was 6.585. Consider `Cc1csc(/C(=N\OCCN2CCC[C@H](C(=O)O)C2)c2ccccc2C)c1` [An_1999/3_23, s1cc(cc1/C(=N\OCCN1C[C@H](CCC1)C(O)=O)/c1ccccc1C)C], for which the pIC50 (ref 10.1021/jm981027k) is listed as 5.917.

Regarding `Cc1ccccc1/C(=N/OCCN1CCC[C@@H](C(=O)O)C1)c1sccc1C` [An_1999/3_39, s1ccc(C)c1/C(=N\OCCN1C[C@@H](CCC1)C(O)=O)/c1ccccc1C], the pIC50 (ref 10.1021/jm981027k) is 7.155. For `Cc1ccccc1/C(=N\OCCN1CCC[C@@H](C(=O)O)C1)c1sccc1C` [An_1999/3_40, s1ccc(C)c1/C(=N/OCCN1C[C@@H](CCC1)C(O)=O)/c1ccccc1C], the pIC50 (ref 10.1021/jm981027k) was 7.046.

On to `Cc1ccccc1C(=COCCN1CCC[C@@H](C(=O)O)C1)c1ccccc1C` [An_1999/3_45, O(\C=C(\c1ccccc1C)/c1ccccc1C)CCN1C[C@@H](CCC1)C(O)=O], for which, for the setting “ref 10.1021/jm981027k”, the pIC50 was 7.699. As for `O=C(O)[C@@H]1CCCN(CCOC=C(c2ccccc2)c2ccccc2)C1` [An_1999/3_47, O(\C=C(\c1ccccc1)/c1ccccc1)CCN1C[C@@H](CCC1)C(O)=O], the pIC50 (ref 10.1021/jm981027k) was 7.066. Regarding `O=C(O)[C@H]1CCCN(CCON=C(c2ccccc2)c2ccccc2)C1` [An_1999/3_61, O(\N=C(\c1ccccc1)/c1ccccc1)CCN1C[C@H](CCC1)C(O)=O], the pIC50 (ref 10.1021/jm981027k) was 6.377. For the compound `Cc1ccccc1C(=NOCCN1CCC[C@@H](C(=O)O)C1)c1ccccc1C` [An_1999/3_62, O(\N=C(\c1ccccc1C)/c1ccccc1C)CCN1C[C@@H](CCC1)C(O)=O], under “ref 10.1021/jm981027k”, the pIC50 is 7.155. Consider `Cc1ccccc1C(=NOCCN1CCC[C@H](C(=O)O)C1)c1ccccc1C` [An_1999/3_63, O(\N=C(\c1ccccc1C)/c1ccccc1C)CCN1C[C@H](CCC1)C(O)=O], for which the pIC50 (ref 10.1021/jm981027k) was 6.886. Regarding `Cc1ccccc1C(=NOCCN1CCC=C(C(=O)O)C1)c1ccccc1C` [An_1999/3_64, O(\N=C(\c1ccccc1C)/c1ccccc1C)CCN1CC(=CCC1)C(O)=O], the pIC50 (ref 10.1021/jm981027k) is recorded as 7.222. As to `O=C(O)[C@@H]1CCCN(CCO/N=C(\c2ccc(F)cc2F)c2cc(F)ccc2F)C1` [An_1999/3_67, Fc1cc(F)ccc1/C(=N\OCCN1C[C@@H](CCC1)C(O)=O)/c1cc(F)ccc1F], the pIC50 (ref 10.1021/jm981027k) was 7.301. On to `O=C(O)[C@@H]1CCCN(CCON=C(c2ccc(F)cc2F)c2ccc(F)cc2F)C1` [An_1999/3_68, Fc1cc(F)ccc1\C(=N\OCCN1C[C@@H](CCC1)C(O)=O)\c1ccc(F)cc1F], for which, where the note is “ref 10.1021/jm981027k”, the pIC50 is 7.

`Cc1ccccc1/C(=C/OCCN1CCC[C@@H](C(=O)O)C1)c1sccc1C` [An_1999/3_69, s1ccc(C)c1/C(=C\OCCN1C[C@@H](CCC1)C(O)=O)/c1ccccc1C]: the pIC50 (ref 10.1021/jm981027k) is 7.77.

What is called pIC50 is the IC50 on a negative log10 scale, so that one unit is a factor of ten.
